In patent publication US10968266B2, “GIP peptide analogues” (University of Copenhagen, priority 2014, dated 2021):
No end group written: not given here.

Tests used:
[1] = biological target: T1, human GIP receptor (Homo sapiens, UniProt P48546); experiment: cAMP accumulation assay (agonism, antagonism, Schild analysis), COS-7 cells transfected with human GIP receptor (Example 7); assay type: cell-based; conditions: for Slope of Schild plot: GIP(1-42) dose-response curves with fixed antagonist concentrations; for IC50 / cAMP accumulation logIC50 ± SEM (antagonism): inhibition of GIP(1-42) at 50-80% of max receptor activation
T1 construct: host or cells: COS-7 cells, transient transfection (calcium phosphate precipitation), pCMV-Script vector
T1 sequence (P48546 22-466): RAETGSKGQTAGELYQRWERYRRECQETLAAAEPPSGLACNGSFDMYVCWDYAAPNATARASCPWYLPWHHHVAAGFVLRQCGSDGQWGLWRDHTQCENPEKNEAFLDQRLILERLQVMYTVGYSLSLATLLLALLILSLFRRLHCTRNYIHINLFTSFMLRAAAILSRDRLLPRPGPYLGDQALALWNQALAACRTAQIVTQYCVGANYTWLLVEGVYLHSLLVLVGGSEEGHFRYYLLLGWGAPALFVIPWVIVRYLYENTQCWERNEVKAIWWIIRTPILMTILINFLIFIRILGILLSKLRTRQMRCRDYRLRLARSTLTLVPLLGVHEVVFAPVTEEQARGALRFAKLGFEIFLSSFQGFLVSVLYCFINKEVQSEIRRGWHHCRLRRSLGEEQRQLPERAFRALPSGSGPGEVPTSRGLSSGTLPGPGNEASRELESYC
Description: COS-7 cells were grown in 10% CO2 and at 37° C. in Dulbecco's modified Eagle's medium 1885 supplemented with 10% fetal bovine serum, 2 mM glutamine, 180 units/ml penicillin, and 45 µg/ml streptomycin. Transfection of COS-7 cells was performed using the calcium phosphate precipitation method with chloroquine addition as previously described (Kissow et al., 2012).
Two days after transfection the cells were washed once with HEPES buffered saline (HBS) and incubated with HBS and 0.5 mM 3-isobutyl-1-methylxanthine (IBMX) for 30 minutes at 37° C. […] After ligand incubation, the HitHunter™ cAMP XS assay (an enzyme fragment complementation-based assay, DiscoveRx, Birmingham, United Kingdom) was carried out according to the manufacturer's instructions. All experiments were made in duplicates, and repeated at least three times. Luminescence was measured by Perkin Elmer™ EnVision 2104 Multilabled reader (Skovlunde, Danmark). In brief, the cells were lysed in the wells, the enzyme fragment-cAMP-antibody, an enzyme fragment and the enzyme substrates were added followed by 1 hour incubation at room temperature on shaker tray. The other enzyme fragment was added to the wells and incubated for 4 hours on shaker tray followed by measurements of luminescence. The ligand-induced cAMP competed with the binding of antibody to the first enzyme fragment and left the two fragments to fuse. The enzyme complex hydrolyzed the substrates and yielded luminescence. The number “n” refers to individual experiments with separate transfections although from same cell line.
IC50, EC50, and Kd/Ki values were determined by nonlinear regression. These, as well as maximal binding capacity (Bmax) values and Schild plot analysis were carried out with the GraphPad Prism 6.0 software (GraphPad, San Diego, Calif., USA) and Microsoft Excel™. Statistical analyses (unpaired t-tests) of two parameters were also performed with GraphPad Prism 6.0. The calculations of Bmax and Ki values were based on the formula for one class of binding sites in homologous competition binding studies and the Cheng Prussoffs formula, respectively (DeBlasi et al., 1989). Kd is the dissociation constant determined by homologous receptor binding. […] Schild plots were performed with log (DR-1) (ordinate) and log(antagonist concentration) (abscissa) to estimate the slopes and Ki values (Lazareno and Birdsall, 1993).

[2] = biological target: T1, human GIP receptor; experiment: Competitive binding assay with 125I-labelled GIP radioligands, COS-7 cells transfected with human GIP receptor (Example 7)
Description: Transfection of COS-7 cells was performed using the calcium phosphate precipitation method with chloroquine addition as previously described (Kissow et al., 2012). […] Nonspecific binding was determined as the binding of radioligand to untransfected cells. All determinations were made in duplicates, and all experiments repeated at least three times. The samples were analyzed for radioactivity using a Wallac Wizard 1470 Gamma Counter (GMI Inc., Minnesota, USA). The number “n” refers to individual experiments with separate transfections although from same cell line. IC50, EC50, and Kd/Ki values were determined by nonlinear regression. […] Statistical analyses (unpaired t-tests) of two parameters were also performed with GraphPad Prism 6.0. The calculations of Bmax and Ki values were based on the formula for one class of binding sites in homologous competition binding studies and the Cheng Prussoffs formula, respectively (DeBlasi et al., 1989). Kd is the dissociation constant determined by homologous receptor binding. […] Schild plots were performed with log (DR-1) (ordinate) and log(antagonist concentration) (abscissa) to estimate the slopes and Ki values (Lazareno and Birdsall, 1993).

[3] = radioligand 125I-GIP(1-30)NH2, relative to GIP(1-30)NH2
[4] = radioligand 125I-GIP(2-30)NH2, relative to GIP(1-30)NH2
[5] = radioligand 125I-GIP(3-30)NH2, relative to GIP(1-30)NH2

With “porcine GIP(3-42): Porcine GIP(3-42), arginine in position 18 and serine in position 34; custom synthesized by PolyPeptide Laboratories (EGTFISDYSIAMDKIRQQDFVNWLLAQKGKKSDWKHNITQ) [reference compound]” as the compound, how does the “Antagonism of GIP(1-42)-induced cAMP response (in words)” value [1] read?
Its value is “higher potency compared to human GIP (3-42), yet not as high as human GIP(3-30)NH2”.

And the “Intrinsic agonistic activity in cAMP accumulation” value (from here on “Intrinsic agonistic activity”) ([1]; agonist mode)?
The value was “neither of the GIP(3-42) variants had any intrinsic agonistic activity”.

With `CC[C@H](C)[C@H](NC(=O)[C@H](CO)NC(=O)[C@H](Cc1ccc(O)cc1)NC(=O)[C@H](CC(=O)O)NC(=O)[C@H](CO)NC(=O)[C@@H](NC(=O)[C@H](Cc1ccccc1)NC(=O)[C@@H](NC(=O)CNC(=O)[C@H](CCC(=O)O)NC(=O)[C@H](C)NC(=O)[C@@H](N)Cc1ccc(O)cc1)[C@@H](C)O)[C@@H](C)CC)C(=O)N[C@@H](C)C(=O)N[C@@H](CCSC)C(=O)N[C@@H](CC(=O)O)C(=O)N[C@@H](CCCCN)C(=O)N[C@H](C(=O)N[C@@H](Cc1c[nH]cn1)C(=O)N[C@@H](CCC(N)=O)C(=O)N[C@@H](CCC(N)=O)C(=O)N[C@@H](CC(=O)O)C(=O)N[C@@H](Cc1ccccc1)C(=O)N[C@H](C(=O)N[C@@H](CC(N)=O)C(=O)N[C@@H](Cc1c[nH]c2ccccc12)C(=O)N[C@@H](CC(C)C)C(=O)N[C@@H](CC(C)C)C(=O)N[C@@H](C)C(=O)N[C@@H](CCC(N)=O)C(=O)N[C@@H](CCCCN)C(N)=O)C(C)C)[C@@H](C)CC` [GIP(1-30)NH2, reference compound] as the compound, how does the “Intrinsic agonistic activity” value ([1]; agonist mode) read?
Its value is “full agonist”.

Which “Fold shift in the dose-response curve of human GIP(1-42)” value ([1]; 1 μM antagonist) does the source give for `CC[C@H](C)[C@H](NC(=O)[C@H](CO)NC(=O)[C@H](Cc1ccc(O)cc1)NC(=O)[C@H](CC(=O)O)NC(=O)[C@H](CO)NC(=O)[C@@H](NC(=O)[C@H](Cc1ccccc1)NC(=O)[C@@H](NC(=O)CNC(=O)[C@@H](N)CCC(=O)O)[C@@H](C)O)[C@@H](C)CC)C(=O)N[C@@H](C)C(=O)N[C@@H](CCSC)C(=O)N[C@@H](CC(=O)O)C(=O)N[C@@H](CCCCN)C(=O)N[C@H](C(=O)N[C@@H](Cc1c[nH]cn1)C(=O)N[C@@H](CCC(N)=O)C(=O)N[C@@H](CCC(N)=O)C(=O)N[C@@H](CC(=O)O)C(=O)N[C@@H](Cc1ccccc1)C(=O)N[C@H](C(=O)N[C@@H](CC(N)=O)C(=O)N[C@@H](Cc1c[nH]c2ccccc12)C(=O)N[C@@H](CC(C)C)C(=O)N[C@@H](CC(C)C)C(=O)N[C@@H](C)C(=O)N[C@@H](CCC(N)=O)C(=O)N[C@@H](CCCCN)C(N)=O)C(C)C)[C@@H](C)CC` [hGIP(3-30)] here?
The value was 281 fold.

With `CC[C@H](C)[C@H](NC(=O)[C@H](CO)NC(=O)[C@H](Cc1ccc(O)cc1)NC(=O)[C@H](CC(=O)O)NC(=O)[C@H](CO)NC(=O)[C@@H](NC(=O)[C@H](Cc1ccccc1)NC(=O)[C@@H](NC(=O)CNC(=O)[C@H](CCC(=O)O)NC(=O)[C@H](C)N)[C@@H](C)O)[C@@H](C)CC)C(=O)N[C@@H](C)C(=O)N[C@@H](CCSC)C(=O)N[C@@H](CC(=O)O)C(=O)N[C@@H](CCCCN)C(=O)N[C@H](C(=O)N[C@@H](Cc1c[nH]cn1)C(=O)N[C@@H](CCC(N)=O)C(=O)N[C@@H](CCC(N)=O)C(=O)N[C@@H](CC(=O)O)C(=O)N[C@@H](Cc1ccccc1)C(=O)N[C@H](C(=O)N[C@@H](CC(N)=O)C(=O)N[C@@H](Cc1c[nH]c2ccccc12)C(=O)N[C@@H](CC(C)C)C(=O)N[C@@H](CC(C)C)C(=O)N[C@@H](C)C(=O)N[C@@H](CCC(N)=O)C(=O)N[C@@H](CCCCN)C(N)=O)C(C)C)[C@@H](C)CC` [GIP(2-30)NH2] as the compound, how does the IC50 ([2]; radioligand 125I-GIP(1-30)NH2) read?
Its IC50 is 26 nM.

And the “fold change GIP(1-30)NH2” value [2, 3]?
Its value is 84.3 fold.

And the “Competitive binding fold (fold change of GIP(1-30)NH2 affinity)” value ([2]; radioligand 125I-GIP(1-42), relative to GIP(1-30)NH2)?
Its value is 16 fold.

And the IC50 ([2]; radioligand 125I-GIP(2-30)NH2)?
The IC50 was 2.7 nM.

What about the “fold change GIP(1-30)NH2” value [2, 4] of the same compound?
Its value is 10.5 fold.

What about the IC50 ([2]; radioligand 125I-GIP(3-30)NH2) of the same compound?
The IC50 was 7.7 nM.

And the “fold change GIP(1-30)NH2” value [2, 5]?
Its value is 4.6 fold.

And the “Slope of Schild plot” value [1]?
Its value is 0.49±0.14.

And the “Fold lower agonist potency than GIP(1-30)NH2” value ([1]; agonist mode)?
Its value is greater than 3000 fold.

What about the “Intrinsic agonistic activity” value ([1]; agonist mode) of the same compound?
Its value is “weak partial agonist”.

What about the “log EC50, cAMP accumulation” value ([1]; agonist mode, given with negative sign) of the same compound?
Its value is −8.43±0.33.

And the IC50 [1]?
Its IC50 is 21.7 nM.

Which “fold change GIP(1-30)NH2” value [2, 3] does the source give for `CC[C@H](C)[C@H](NC(=O)[C@H](CO)NC(=O)[C@H](Cc1ccc(O)cc1)NC(=O)[C@H](CC(=O)O)NC(=O)[C@H](CO)NC(=O)[C@@H](NC(=O)[C@@H](N)Cc1ccccc1)[C@@H](C)CC)C(=O)N[C@@H](C)C(=O)N[C@@H](CCSC)C(=O)N[C@@H](CC(=O)O)C(=O)N[C@@H](CCCCN)C(=O)N[C@H](C(=O)N[C@@H](Cc1c[nH]cn1)C(=O)N[C@@H](CCC(N)=O)C(=O)N[C@@H](CCC(N)=O)C(=O)N[C@@H](CC(=O)O)C(=O)N[C@@H](Cc1ccccc1)C(=O)N[C@H](C(=O)N[C@@H](CC(N)=O)C(=O)N[C@@H](Cc1c[nH]c2ccccc12)C(=O)N[C@@H](CC(C)C)C(=O)N[C@@H](CC(C)C)C(=O)N[C@@H](C)C(=O)N[C@@H](CCC(N)=O)C(=O)N[C@@H](CCCCN)C(N)=O)C(C)C)[C@@H](C)CC` [GIP(6-30)NH2, reference compound] here?
Its value is 3502 fold.

What about the IC50 ([2]; radioligand 125I-GIP(2-30)NH2) of the same compound?
Its IC50 is 340 nM.

And the “fold change GIP(1-30)NH2” value [2, 4]?
Its value is 707 fold.

What about the IC50 ([2]; radioligand 125I-GIP(3-30)NH2) of the same compound?
The IC50 was 370 nM.

What about the “fold change GIP(1-30)NH2” value [2, 5] of the same compound?
Its value is 223 fold.

What about the “Slope of Schild plot” value [1] of the same compound?
The value was 0.38±0.13.

And the IC50 [1]?
Its IC50 is 342 nM.

And the “cAMP accumulation logIC50 ± SEM (antagonism)” value ([1]; given with negative sign)?
Its value is −6.47 ± 0.6.

What does the source list for `CC[C@H](C)[C@H](N)C(=O)N[C@@H](CO)C(=O)N[C@@H](CC(=O)O)C(=O)N[C@@H](Cc1ccc(O)cc1)C(=O)N[C@@H](CO)C(=O)N[C@H](C(=O)N[C@@H](C)C(=O)N[C@@H](CCSC)C(=O)N[C@@H](CC(=O)O)C(=O)N[C@@H](CCCCN)C(=O)N[C@H](C(=O)N[C@@H](Cc1c[nH]cn1)C(=O)N[C@@H](CCC(N)=O)C(=O)N[C@@H](CCC(N)=O)C(=O)N[C@@H](CC(=O)O)C(=O)N[C@@H](Cc1ccccc1)C(=O)N[C@H](C(=O)N[C@@H](CC(N)=O)C(=O)N[C@@H](Cc1c[nH]c2ccccc12)C(=O)N[C@@H](CC(C)C)C(=O)N[C@@H](CC(C)C)C(=O)N[C@@H](C)C(=O)N[C@@H](CCC(N)=O)C(=O)N[C@@H](CCCCN)C(N)=O)C(C)C)[C@@H](C)CC)[C@@H](C)CC` [GIP(7-30)NH2, reference compound]?
Slope of Schild plot [1]: 0.17±0.03; IC50 [1]: 137 nM

How did the “cAMP accumulation logIC50 ± SEM (antagonism)” value ([1]; given with negative sign) turn out when “DYSIAMDKIHQQDFVNWLLAQK-NH2 [GIP(9-30)NH2]” was run?
Its value is −6.35 ± 0.6.

And the “Fold lower antagonistic potency (right-shift) compared to GIP(3-30)NH2” value ([1]; inhibition of submaximal GIP(1-42) activation)?
Its value is 38 fold.
